From patent US9139796B2, “Methods of and formulations for reducing and inhibiting the growth of the concentration of microbes in water-based fluids and systems used with them” (Dow Global Technologies LLC, priority 2007, dated 2015)
Where two headings read alike, the source gives them in different places.

Legend:
[1] = system: oil/gas field-isolated sulfate reducing bacteria (SRB); assay: Biocidal activity against oil/gas field-isolated sulfate reducing bacteria under anaerobic environment in deaerated salt solution; assay type: cell-based
Protocol: (§1) A sterile 0.85% NaCl solution is contaminated with bacterial inoculums at final bacterial concentrations of ˜10^7 CFU/mL. At day zero, either oxazolidine compound (BIOBAN™ CS-1135, 78% 4,4-dimethyloxazolidine in water, The Dow Chemical Company, or BIOBAN™ CS-1246, 97.5% 7-ethylbicyclooxazolidine in water, The Dow Chemical Company), THPS (AQUCAR™ THPS 75, 75% THPS in water, The Dow Chemical Company), or a combination of oxazolidine compound and THPS is added and the solution mixed well to provide a desired final concentration. […]
The protocol used to test against oil/gas field-isolated sulfate reducing bacteria (SRB) is performed as described above, but under anaerobic environment (Bactron III anaerobic chamber) and using a deaerated sterile salt solution (1.2490 g NaCl, 2.9290 g NaHCO3, 0.1910 g Na2CO3, 0.0060 g Na2SO4, 0.033 g CaCl2, and 0.0590 g MgCl2.6H2O in 1 L water) instead of 0.85% NaCl solution.
(§2) The testing protocol described in Example 1 is used for aerobic bacteria and anaerobic sulfate reducing bacteria.

[2] = system: Staphylococcus aureus ATCC 6538, Klebsiella pneumoniae ATCC 8308, Bacillus subtillus ATCC 8473, Escherichia coli ATCC 11229; assay: Biocidal activity against standard aerobic bacterial strains in 0.85% NaCl solution, live count by serial dilution; assay type: cell-based; settings: biocide alone; average for four standard aerobic bacteria; ~10^7 CFU/mL, 37° C.
Protocol: as §1
The testing protocol described above is used for the standard bacterial strains Staphylococcus aureus ATCC 6538, Klebsiella pneumoniae ATCC 8308, Bacillus subtillus ATCC 8473, Escherichia coli ATCC 11229.
as §2

[3] = biocide alone, field anaerobic SRB, anaerobic chamber

In the case of `CC1(C)COCN1` [4,4-dimethyloxazolidine], the “Concentration required to achieve at least 3 log bacterial reduction in 1 hr” value [1, 3] is reported as 1000 ppm, active and the “Concentration required to achieve at least 3 log bacterial reduction in 1 hr” value [2] is reported as 272.04 ppm, active.

In the case of “tetrakis(hydroxymethyl)phosphonium sulfate [THPS]”, the “Concentration required to achieve at least 3 log bacterial reduction in 1 hr” value [1] is reported as 33.35 ppm, active and the “Concentration required to achieve at least 3 log bacterial reduction in 1 hr” value [2] is reported as 44.49 ppm, active.

In the case of `CCC12COCN1COC2` [7-ethylbicyclooxazolidine, 5-ethyl-1-aza-3,7-dioxabicyclo[3.3.0]octane], the “Concentration required to achieve at least 3 log bacterial reduction in 1 hr” value [1, 3] is reported as >1000 ppm, active and the “Concentration required to achieve at least 3 log bacterial reduction in 1 hr” value [2] is reported as 272.04 ppm, active.
